Assay results as given in the RepoRT retention time repository.

Experiment: Waters ACQUITY UPLC BEH C18, 100 × 2.1 mm, 1.7 µm, 40 °C, 0.3 to 0.4 mL/min, estimated dead time 0.63 min; A: water + 0.1% formic acid; B: methanol + 0.1% formic acid; gradient (min/%B) 0/0.5 0.1/0.5 10/80 10.1/99.5 12/99.5
Details: stereoisomer not certain

| LC retention time | Structure (SMILES) |
| --- | --- |
| 4.79 min | CCCCCCCCCCCCC(O)C(O)C(COC1OC(CC(C(=O)O)C(=O)O)C(O)C(O)C1O)NC(C)=O (stereo unspecified) |
| 3.21 min | COc1cc(-c2[o+]c3cc(O)cc(O)c3cc2OC2OC(CO)C(O)C(O)C2O)cc(O)c1O (stereo unspecified) |
| 4.52 min | O=C1CC(c2ccc(O)cc2)Oc2cc(OC3OC(CO)C(O)C(O)C3O)cc(O)c21 (stereo unspecified) |
| 2.86 min | COc1c(O)cc2c(c1O)C1OC(CO)C(O)C(O)C1OC2=O (stereo unspecified) |
| 4.54 min | COc1cc(-c2cc(=O)c3c(O)cc(OC4OC(C(=O)O)C(O)C(O)C4O)cc3o2)cc(OC)c1O (stereo unspecified) |
| 9.37 min | CCC=CCC1C(=O)C=CC1CCCCCCCC(=O)O (stereo unspecified) |
| 5.07 min | C=CC1C(OC2OC(CO)C(O)C(O)C2O)OC(O)=C2C(=O)N3CCc4c([nH]c5ccccc45)C3=CC21 (stereo unspecified) |
| 2.83 min | O=S(=O)(O)ON=C(Cc1ccccc1)SC1OC(CO)C(O)C(O)C1O (stereo unspecified) |
| 3.9 min | O=c1c(OC2OCC(O)C(O)C2O)c(-c2cc(O)c(O)c(O)c2)oc2cc(O)cc(O)c12 (stereo unspecified) |
| 4.67 min | CC1OC(Oc2c(-c3ccc(O)c(O)c3)oc3cc(O)cc(O)c3c2=O)C(OC2OC(COC(=O)C=Cc3ccc(O)cc3)C(O)C(O)C2O)C(O)C1O (stereo unspecified) |
| 4.51 min | O=c1c(O)c(-c2ccc(OC3OC(CO)C(O)C(O)C3O)c(O)c2)oc2cc(O)cc(O)c12 (stereo unspecified) |
| 4.52 min | CC1CCC2C(C)C3C(CC4C5C(=O)C=C6CC(OC7OC(CO)C(OC8OC(C)C(O)C(O)C8O)C(O)C7OC7OC(C)C(O)C(O)C7O)CCC6(C)C5CCC43C)N2C1 (stereo unspecified) |
| 5.03 min | COc1cc2c(c(OC)c1OC)-c1ccc(OC)c(=O)cc1C(N(C)Cc1ccccc1O)CC2 (stereo unspecified) |
| 7.45 min | CC1(C)CCC2(C(=O)O)CCC3(C)C(=CCC4C5(C)CC(O)C(O)C(C)(C(=O)OC6OC(COC(=O)CC(=O)O)C(O)C(O)C6O)C5CCC43C)C2C1 (stereo unspecified) |
| 5.23 min | COc1c(CO)c(OC2OC(COC3OCC(O)C(O)C3O)C(O)C(O)C2O)cc2c1C(=O)c1ccccc1C2=O (stereo unspecified) |
| 4.55 min | CCCCCCCCCCCCC(O)C(O)C(COC1OC(CO)C(O)C(O)C1O)NC(C)=O (stereo unspecified) |
| 6.25 min | CC(C)=CCCC(C)(O)C1CCC2(C)C1C(O)CC1C3(C)CCC(O)C(C)(C)C3C(OC3OC(CO)C(O)C(O)C3OC3OC(C)C(O)C(O)C3O)CC12C (stereo unspecified) |
| 9.52 min | CC(C)=CCc1cc(C(O)=CC(=O)c2cc(CC=C(C)C)c(O)cc2O)ccc1O |
| 8.93 min | CC(C)=CCc1c(O)ccc(C(=O)C=Cc2ccc(O)cc2)c1O |
| 4.18 min | COC(=O)C1CC23CCC[N+]4([O-])CCC5(c6ccccc6NC15CC2)C34 (stereo unspecified) |
| 3.78 min | CCCSSCC(NC(=O)CCC(N)C(=O)O)C(=O)NCC(=O)O (stereo unspecified) |
| 4.38 min | CC1OC(OC2C(Oc3cc(O)c4c(c3)OC(c3ccc(O)cc3)CC4=O)OC(CO)C(O)C2O)C(O)C(O)C1O (stereo unspecified) |
| 5.25 min | CCCCCCCCNC(O)CCc1ccc(O)c(OC)c1 (stereo unspecified) |
| 3.81 min | CC(=O)NC(CC(C)C)C(=O)O (stereo unspecified) |

| LC retention time | Structure (SMILES) |
| --- | --- |
| 4.71 min | COc1cc(C=CC(=O)OC2C(OC3COC(c4c(O)cc5oc(-c6ccc(O)cc6)cc(=O)c5c4O)C(O)C3O)OC(CO)C(O)C2O)ccc1O (stereo unspecified) |
| 2.66 min | CC(C)CC(N)C(=O)NC(C(=O)O)C(C)C (stereo unspecified) |
| 2.01 min | Nc1[nH]c(=O)[nH]c(=O)c1OC1OC(CO)C(O)C(O)C1O (stereo unspecified) |
| 5.42 min | COc1ccc(C=CC(=O)c2c(O)cc(OC3OC(CO)C(O)C(O)C3OC3OC(C)C(O)C(O)C3O)cc2O)cc1 (stereo unspecified) |
| 4.12 min | O=C(O)CCC(NC(=O)Cc1c[nH]c2ccccc12)C(=O)O (stereo unspecified) |
| 6.72 min | CCOC(=O)Oc1c(OC)cc(C(=O)OC2CC3CN4CCc5c([nH]c6cc(OC)ccc56)C4CC3C(C(=O)OC)C2OC)cc1OC (stereo unspecified) |
| 7.17 min | O=C1CC(c2ccccc2)Oc2ccc(O)cc21 (stereo unspecified) |
| 7.57 min | C=C(CCC=C(C)C)C1CCC2(C)C1C(O)CC1C3(C)CCC(O)C(C)(C)C3C(OC3OC(CO)C(O)C(O)C3OC3OC(C)C(O)C(O)C3O)CC12C (stereo unspecified) |
| 2.08 min | CC(C)CC(N)C(=O)NCC(=O)O (stereo unspecified) |
| 1.8 min | CCC(C)C(N)C(=O)NC(CO)C(=O)O (stereo unspecified) |
| 6.39 min | CC1(C)CCC2(C(=O)OC3OC(CO)C(O)C(O)C3O)CCC3(C)C(=CCC4C5(C)CCC(OC6OC(C(=O)O)C(OC7OC(CO)C(O)C7O)C(O)C6O)C(C)(C)C5CCC43C)C2C1 (stereo unspecified) |
| 4.57 min | COc1cc(-c2cc(=O)c3c(O)cc(OC4OC(CO)C(O)C(O)C4O)cc3o2)cc(OC)c1O (stereo unspecified) |
| 3.81 min | CC(CCC1C(CO)=CC(=O)CC1(C)C)OC1OC(CO)C(O)C(O)C1O (stereo unspecified) |
| 2.75 min | CC1OC(OCC2OC(Oc3cc4c(O)cc(O)cc4[o+]c3-c3ccc(O)c(O)c3)C(OC3OC(CO)C(O)C(O)C3O)C(O)C2O)C(O)C(O)C1O (stereo unspecified) |
| 4.26 min | CCC12C=CCN3CCc4c(n(c5ccccc45)C(O)(C(=O)OC)C1)C32 (stereo unspecified) |
| 4.5 min | CCC12CCCN3CCc4c(n(c5ccccc45)C(O)(C(=O)OC)C1)C32 (stereo unspecified) |
| 4.55 min | CC(NC(=O)Cc1c[nH]c2ccccc12)C(=O)O (stereo unspecified) |
| 5.1 min | CC(CCC1(O)OC2CC3C4CC=C5CC(OC6OC(COC7OC(C)C(O)C(O)C7OC7OC(C)C(O)C(O)C7OC7OC(C)C(O)C(O)C7O)C(O)C(O)C6O)CCC5(C)C4CCC3(C)C2C1C)COC1OC(CO)C(O)C(O)C1O (stereo unspecified) |
| 5.26 min | COc1ccc(-c2cc(=O)c3c(O)cc(OC4OC(CO)C(O)C(O)C4OC4OC(C)C(O)C(O)C4O)cc3o2)cc1 (stereo unspecified) |
| 2.36 min | NC(CCC(=O)NC(Cc1ccc(O)cc1)C(=O)O)C(=O)O (stereo unspecified) |
| 6.73 min | CC1OC(OC2C(OC3C(OC4CCC5(C)C(CCC6(C)C5CC=C5C7CC(C)(C)CC(OC(=O)CC(=O)O)C7(C)CCC56C)C4(C)CO)OC(C(=O)O)C(O)C3O)OC(CO)C(O)C2O)C(O)C(O)C1O (stereo unspecified) |
| 6.82 min | CC1=C(C)C(=O)OC(C(C)C2(O)CCC3C4C5OC5C5(O)CC=CC(=O)C5(C)C4CCC32C)C1 (stereo unspecified) |
| 3.25 min | CC(C)C(O)(CC(=O)O)C(=O)O (stereo unspecified) |

Second part, the molecule before the results:

| Structure (SMILES) | LC retention time |
| --- | --- |
| OCC=Cc1ccc(O)c(O)c1 | 3.18 min |
| CCCCCC=CCC=CCCCCCCCC(=O)OCC(O)COP(=O)(O)OCCN (stereo unspecified) | 9.24 min |
| O=c1c(O)c(-c2ccc(O)cc2)oc2cc(O)cc(O)c12 | 6.01 min |
| CNC(=O)Oc1ccc2c(c1)C1(C)CCN(C)C1N2C (stereo unspecified) | 3.31 min |
| OCC=Cc1ccc(O)cc1 | 3.76 min |
| NC(C(=O)O)c1ccccc1 (stereo unspecified) | 2 min |
| CCN1CC2(C)CCC(O)C34C5CC6C(OC)CC(O)(C(CC23)C14)C5C6O (stereo unspecified) | 2.89 min |
| C=CC12CN(C)C3CC14C(=Nc1ccccc14)C1CC2C3CO1 (stereo unspecified) | 3.58 min |
| O=C1CC(c2ccc(O)cc2)Oc2cc(O)ccc21 (stereo unspecified) | 5.3 min |
| COCC12CN(C)C3C4C(OC)C1C3(C(OC)CC2O)C1CC2(O)C(OC)C(O)C4(OC(C)=O)C1C2OC(=O)c1ccccc1 (stereo unspecified) | 5.61 min |
| CN(C)CCc1ccc(O)cc1 | 2.05 min |
| COc1ccc(Cc2nccc3cc(OC)c(OC)cc23)cc1OC | 4.49 min |
| COC(=O)C1=COC(C)C2CN3CCC4(C(=O)Nc5c4ccc(OC)c5OC)C3CC12 (stereo unspecified) | 4.48 min |
| CC1CCC2(NC1)OC1CC3C4CCC5CC(OC6OC(CO)C(OC7OC(CO)C(O)C(OC8OCC(O)C(O)C8O)C7OC7OC(CO)C(O)C(O)C7O)C(O)C6O)CCC5(C)C4CCC3(C)C1C2C (stereo unspecified) | 4.81 min |
| CCC1CN2CCC3(C(=O)Nc4ccccc43)C2CC1C(=COC)C(=O)OC (stereo unspecified) | 4.9 min |
| O=C1CCCC2C3CCCN4CCCC(CN12)C34 (stereo unspecified) | 2.26 min |
| COc1cc(C=CC(=O)N2CCC=CC2=O)cc(OC)c1OC | 6.83 min |
| NC(Cc1ccccc1)C(=O)O (stereo unspecified) | 2.3 min |
| Oc1ccc(CCc2cc(O)cc(O)c2)cc1 | 5.15 min |
| CC(C)C(O)(C(=O)OCC1=CCN2CCC(O)C12)C(C)O (stereo unspecified) | 2.75 min |

| Structure (SMILES) | LC retention time |
| --- | --- |
| C=CC1C(OC2OC(CO)C(O)C(O)C2O)OC=C(C(=O)OC)C1CC1NCCc2c1[nH]c1ccccc21 (stereo unspecified) | 4.36 min |
| COC(=O)C12CC3CC(C(C)O)C1N(CCc1c2[nH]c2ccc(OC)cc12)C3 (stereo unspecified) | 4.61 min |
| CCN1CC2(COC(=O)c3ccccc3N)CCC(OC)C34C5CC6C(OC)CC(O)(C5C6OC)C(O)(C(OC)C23)C14 (stereo unspecified) | 5.5 min |
| COc1cc(C=CC(=O)NCCc2ccc(O)cc2)ccc1O | 5.13 min |
| O=C1CC(c2ccccc2)Oc2ccccc21 (stereo unspecified) | 8.5 min |
| O=C1CCC(C(=O)O)N1 (stereo unspecified) | 1.73 min |
| O=C1CC(c2ccccc2)Oc2cc(O)cc(O)c21 (stereo unspecified) | 7.47 min |
| CCCCCC=CCC=CCC=CCC=CCCCC(=O)O | 7.39 min |
| O=c1cc(-c2ccc(O)cc2)oc2cc(O)cc(O)c12 | 5.89 min |
| COc1ccc2c(c1OC)C(=O)OC2C1c2cc3c(cc2CCN1C)OCO3 (stereo unspecified) | 4.21 min |
| O=C(O)C=Cc1ccc(O)cc1 | 2.71 min |
| COc1cc2c3cc1Oc1cc(ccc1O)CC1c4c(cc(OC)c(O)c4Oc4ccc(cc4)CC3N(C)CC2)CC[N+]1(C)C (stereo unspecified) | 3.41 min |
| COc1ccc2cc1Oc1ccc(cc1)CC1=NCCc3cc(OC)c(cc31)Oc1c(OC)c(OC)c(OC)c3c1C(C2)N(C)CC3 (stereo unspecified) | 4.25 min |
| Cc1[nH]ccc2c1[nH]c1cc(=O)ccc12 | 3.18 min |
| O=c1ccc2ccc(O)c(O)c2o1 | 3.65 min |
| CC=C1CN2C3CC1C1COC(c4c3[nH]c3cc(OC)ccc43)C12 (stereo unspecified) | 4.42 min |
| C=CCNC(=O)C=Cc1ccc(O)c(OC)c1 | 2.86 min |
| COc1cc2c(cc1OC)-c1c(C)c3ccc(OC)c(OC)c3c[n+]1CC2 | 5.19 min |
| CS(=O)CCCCCCC#N (stereo unspecified) | 3.43 min |
